Assays:
[1] = tested on: B6.Apc^Min/+ model of intestinal neoplasia; test: Polyp number and cross sectional polyp area in B6.Apc^Min/+ mice treated with C5aR antagonist on HFCoco diet; type: in vivo, mouse; conditions: 1 mg/kg subcutaneously every other day for 30 days
Source text: B6.Apc^Min/+ is a mouse model for intestinal neoplasia that carry a mutation in the Apc gene similar to that found in over 85% of sporadic colon cancer cases in humans. The APC mutation results in improper binding of β-catenin to the degradation complex and models the mutation observed in most sporadic human colon cancer tumors. B6.Apc^Min/+ mice develop 50-80 intestinal polyps in the small intestine by 120 days of age (Heijstek et al., 2005, Digest Surg. 22: 16-25). The APC amino acid sequence is 90% identical to that of the human APC.
B6.Apc^Min/+ and the CCSs (A2.Apc^Min/+, A7.Apc^Min/+, A9.Apc^Min/+, A17.Apc^Min/+, and A19.Apc^Min/+) along with the corresponding wild-type controls (B6, B6.A2, B6.A7, B6.A9, B6.A17 and B6.A19, respectively) were born and maintained on the standard 5010 diet until 30 days of age. Male mice were genotyped for the APC mutation using DNA that was purified from tail tissue taken at weaning. […] Body weight and length (to calculate BMI) as well as epidydimal fat pad mass were measured at the final time point.
Body weight and length were measured to calculate body mass index (BMI). Polyp number and polyp size from the small and large intestine were measured. […] The large intestine was excised and analyzed as one region (LI-1). […]

[2] = tested on: activated AKT (pS473), IKK (pS176) and NFκB (pS536); test: Western analysis of intestinal tissue of treated B6.Apc^Min/+ mice (NFκB signaling); type: in vivo, mouse; conditions: after 30 days on HFCoco diet and treatment; compared to control inhibitor
Source text: To test the function of this reduction in polyp number in mice treated with the C5aR inhibitor, intestinal tissues were collected and used to extract RNA and protein for expression and western analysis, respectively.

Question: With “Acetyl-Phe-[Orn-Pro-D-cyclohexylalanine-Trp-Arg] [PMX-53]” as the substance, how does the “cross sectional polyp area” value [1] read?
Answer: Its value is “significantly reduced”.

Question: What about the polyp number ([1]; compared to untreated mice or mice injected with control inhibitor) of the same substance?
Answer: Its polyp number is “significant reduction”.

Question: What about the “activated AKT (pS473) protein level in intestine” value [2] of the same substance?
Answer: The value was “significant reduction”.

Question: What about the “activated IKK (pS176) protein level in intestine” value [2] of the same substance?
Answer: The value was “significant reduction”.

Question: What about the “activated NFκB (pS536) protein level in intestine” value [2] of the same substance?
Answer: Its value is “significant reduction”.
